Results as given in patent US12054475B2, “Substituted heterocycles as aldehyde dehydrogenase inhibitors” (KayoThera Inc., priority 2021, dated 2024).
Values joined by “and” are separate entries in the source; they are usually repeats but may differ in a detail not shown here. Equal entries are not always repeated. Where two headings read alike, the source gives them in different places.

What was measured:
hALDH1a3 [1] = biological target: T1, hALDH1a3 (Homo sapiens (Human), UniProt P47895); assay: Aldh1a3 enzyme inhibition assay (recombinant enzyme, resorufin fluorescence); format: biochemical
T1 sequence (P47895 whole entry): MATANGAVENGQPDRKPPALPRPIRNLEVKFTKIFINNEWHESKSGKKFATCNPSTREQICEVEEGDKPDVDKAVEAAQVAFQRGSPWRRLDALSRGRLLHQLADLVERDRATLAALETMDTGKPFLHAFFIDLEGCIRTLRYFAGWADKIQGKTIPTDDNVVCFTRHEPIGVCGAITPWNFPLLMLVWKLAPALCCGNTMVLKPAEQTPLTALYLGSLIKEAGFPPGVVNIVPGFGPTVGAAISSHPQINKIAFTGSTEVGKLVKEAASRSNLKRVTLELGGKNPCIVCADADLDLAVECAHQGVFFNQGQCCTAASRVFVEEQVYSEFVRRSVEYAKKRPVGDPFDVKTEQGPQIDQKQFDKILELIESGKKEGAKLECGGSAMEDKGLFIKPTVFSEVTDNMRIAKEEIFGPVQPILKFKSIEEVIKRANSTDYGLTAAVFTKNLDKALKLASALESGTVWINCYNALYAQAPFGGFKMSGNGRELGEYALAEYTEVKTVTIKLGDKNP
Protocol: (§1) Cells were resuspended in 10 mM […] pH 7.4, 10 mM KCl. […] Recombinant enzyme and inhibitor added immediately before assay. Reaction rate measured by resorufin fluorescence.

mALDH1a3 = mALDH1a3 (Mus musculus (Mouse), UniProt Q9JHW9); assay: as above; format: biochemical
Sequence of mALDH1a3 (Q9JHW9 whole entry): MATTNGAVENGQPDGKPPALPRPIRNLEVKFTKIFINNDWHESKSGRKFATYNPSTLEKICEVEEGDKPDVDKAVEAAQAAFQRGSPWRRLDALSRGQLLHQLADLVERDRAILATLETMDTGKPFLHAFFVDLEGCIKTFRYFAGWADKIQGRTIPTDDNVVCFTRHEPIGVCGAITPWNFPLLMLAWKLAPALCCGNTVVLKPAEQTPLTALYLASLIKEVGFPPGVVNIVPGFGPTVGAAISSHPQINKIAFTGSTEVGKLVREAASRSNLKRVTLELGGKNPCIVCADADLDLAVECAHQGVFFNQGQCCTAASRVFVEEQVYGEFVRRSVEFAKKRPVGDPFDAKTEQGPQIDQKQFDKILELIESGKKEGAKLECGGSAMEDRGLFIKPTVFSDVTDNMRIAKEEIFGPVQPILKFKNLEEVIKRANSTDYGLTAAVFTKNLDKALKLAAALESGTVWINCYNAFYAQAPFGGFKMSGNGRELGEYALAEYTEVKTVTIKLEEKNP
Protocol: as §1

mALDH1a2 = mALDH1a2 (Mus musculus (Mouse), UniProt Q62148); assay: Aldh1a2 enzyme inhibition assay (recombinant enzyme, resorufin fluorescence); format: biochemical
Sequence of mALDH1a2 (Q62148 whole entry): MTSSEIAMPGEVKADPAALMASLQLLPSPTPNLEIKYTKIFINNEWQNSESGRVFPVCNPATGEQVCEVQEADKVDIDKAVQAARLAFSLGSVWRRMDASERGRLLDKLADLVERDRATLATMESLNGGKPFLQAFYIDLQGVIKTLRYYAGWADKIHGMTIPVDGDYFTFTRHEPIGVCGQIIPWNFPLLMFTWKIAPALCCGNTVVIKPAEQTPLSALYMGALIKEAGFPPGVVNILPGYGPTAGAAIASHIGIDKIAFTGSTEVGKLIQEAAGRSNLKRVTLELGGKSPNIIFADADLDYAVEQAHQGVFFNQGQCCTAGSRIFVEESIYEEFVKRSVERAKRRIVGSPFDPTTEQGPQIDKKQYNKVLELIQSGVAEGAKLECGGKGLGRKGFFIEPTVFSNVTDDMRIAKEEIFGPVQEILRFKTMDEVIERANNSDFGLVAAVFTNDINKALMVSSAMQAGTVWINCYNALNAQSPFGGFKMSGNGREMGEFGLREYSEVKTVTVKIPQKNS
From the text: Recombinant enzyme and inhibitor added immediately before assay. Reaction rate measured by resorufin fluorescence.

hALDH1a2 [2] = biological target: T2, hALDH1a2 (Homo sapiens (Human), UniProt O94788); assay: as above; format: biochemical
T2 sequence (O94788 whole entry): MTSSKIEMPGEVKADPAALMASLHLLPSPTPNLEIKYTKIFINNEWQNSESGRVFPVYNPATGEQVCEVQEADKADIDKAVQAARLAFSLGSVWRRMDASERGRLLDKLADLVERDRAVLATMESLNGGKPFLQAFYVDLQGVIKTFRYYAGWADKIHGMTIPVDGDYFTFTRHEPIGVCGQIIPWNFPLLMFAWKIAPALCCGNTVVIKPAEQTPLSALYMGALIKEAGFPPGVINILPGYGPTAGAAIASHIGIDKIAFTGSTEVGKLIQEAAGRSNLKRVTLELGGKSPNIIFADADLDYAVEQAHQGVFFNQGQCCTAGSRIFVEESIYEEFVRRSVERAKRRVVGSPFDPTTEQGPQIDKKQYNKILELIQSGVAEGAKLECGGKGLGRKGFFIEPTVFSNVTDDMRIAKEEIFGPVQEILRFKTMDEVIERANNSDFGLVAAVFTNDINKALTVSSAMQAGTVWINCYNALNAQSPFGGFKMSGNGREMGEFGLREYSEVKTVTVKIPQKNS

[3] = test system: T3-MCA fibrosarcoma cell line allografts; assay: T3-MCA fibrosarcoma allograft study; format: in vivo, C57BL6 syngeneic mice; conditions: oral, 40 mg/kg once daily for twelve days
Protocol: In one allograft study, T3-MCA fibrosarcoma cell line allografts were implanted subcutaneously into C57BL6 syngeneic mice. […] Tumor volume were measured on day 8, 14, and 17 post inoculation for each group, and tumor mass were measured at the end of the study.
In another allograft study, T3-MCA fibrosarcoma cell line allografts were implanted subcutaneously into C57BL6 syngeneic mice.

hALDH1a3 [4] = biological target: T1, hALDH1a3; assay: Cell based assay: STRA6 mRNA by q-rtPCR in MCF7 cells expressing ALDH1a3; conditions: 20 hours incubation, read-out: IC50 (Aldh1a3), STRA6 mRNA levels
Protocol: (§2) MCF7 cells were stably transduced with lentiviral vectors encoding human ALDH1a1, ALDH1a2 or ALDH1a3 or Vector control and selected by puromycin to establish stable cultures that were verified for overexpression by western blotting and Aldefluor activity. Cells were plated into 6 cm plates in regular DMEM media supplement with […]. At the beginning of the assay, cells were washed with PBS for 5 minutes followed by addition of compound solvated into DMEM media with 10% FBS or corresponding DMSO controls, maintaining DMSO at a constant concentration of 0.1% across all samples. Following 20 hours of incubation at 37 C, cells were lysed and RNA was extracted using a Qiagen RNAeasy kit. cDNA was synthesized using the Superscript IV kit and retinoid activation was measured using STRA6 mRNA levels as a proxy as measured by q-rtPCR.

hALDH1a2 [5] = biological target: T2, hALDH1a2; assay: Cell based assay: STRA6 mRNA by q-rtPCR in MCF7 cells expressing ALDH1a2; conditions: 20 hours incubation, read-out: IC50 (ALDH1a2), STRA6 mRNA levels
Protocol: as §2

[6] = Pharmacokinetic profiling in mice; conditions: male CD-1/C57BL/6 mice

| Compound | IC50 (hALDH1a3 [1]; read-out: hAldh1a3 IC50) | IC50 (mALDH1a3; read-out: mAldh1a3 IC50) | IC50 (mALDH1a2) | IC50 (hALDH1a2 [2]) | also measured |
| --- | --- | --- | --- | --- | --- |
| Cc1cc(NC(=O)c2ccncc2CC2CCC2)cc2c1NC(=O)CC2 [Compound 155] | 250 to 1000 nM | 1000 to 5000 nM | 1290 nM | 835 nM | – |
| CCc1cnccc1C(=O)Nc1cc2c(c(F)c1F)NC(=O)CC2 [Compound 143, N-(7,8-difluoro-2-oxo-3,4-dihydro-1H-quinolin-6-yl)-3-ethyl-pyridine-4-carboxamide] | < 100 nM | < 100 nM | 594 nM | 674 nM | – |
| O=C1CCc2cc(NC(=O)c3ccncc3CC(F)(F)F)ccc2N1 [Compound 53] | < 100 nM | < 100 nM | 494 nM | 374 nM | – |
| CCc1cnccc1C(=O)Nc1ccc2c(c1)CCC(=O)N2 [Compound 9] | < 100 nM | 250 to 1000 nM | 1110 nM | 587 nM | – |
| CCc1cnccc1C(=O)Nc1cc2c(cc1F)NC(=O)CC2 [Compound 1] | – | – | 3330 nM | 3330 nM | IC50 (hALDH1a3 [1]): 100 to 250 nM; IC50 (mALDH1a3): 100 to 250 nM |
| O=C1CCc2cc(NC(=O)c3ccncc3CC(F)(F)F)c(F)c(F)c2N1 [Compound 167, N-(7,8-difluoro-2-oxo-3,4-dihydro-1H-quinolin-6-yl)-3-(2,2,2-trifluoroethyl) pyridine-4-carboxamide] | < 100 nM | < 100 nM | 815 nM | 754 nM | – |
| Cc1cc(NC(=O)c2ccnc3c2CCN3)cc2c1NC(=O)CC2 [Compound 153, N-(8-methyl-2-oxo-3,4-dihydro-1H-quinolin-6-yl)-2,3-dihydro-1H-pyrrolo[2,3-b]pyridine-4-carboxamide] | 1000 to 5000 nM | 250 to 1000 nM | 362 nM | 492 nM | – |
| CCc1ccccc1C(=O)Nc1cc2c(cc1F)NC(=O)CC2 [Compound 4] | – | – | – | – | plasma half-life, IV bolus dosing ([6]; 1 mg/kg intravenous): 1.22 h; plasma half-life, PO oral gavage dosing ([6]; 10 mg/kg oral gavage): 1.70 h; oral bioavailability ([6]; 10 mg/kg oral gavage, 1 mg/kg intravenous): 62.5% |
| CCc1cnccc1C(=O)Nc1cnc2c(c1)CCC(=O)N2 [Compound 154, 3-ethyl-N-(7-oxo-6,8-dihydro-5H-1,8-naphthyridin-3-yl)pyridine-4-carboxamide] | 1000 to 5000 nM | 250 to 1000 nM | 8170 nM | 4750 nM | – |
| O=C1CCc2cc(NC(=O)c3ccncc3CC3CC3)ccc2N1 [Compound 59] | < 100 nM | < 100 nM | 487 nM | 530 nM | – |
| CCn1cncc1C(=O)Nc1ccc2c(c1)CCC(=O)N2 [Compound 49] | > 5000 nM | > 5000 nM | > 10000 nM | > 10000 nM | – |
| 2-ethyl-N-(8-methyl-2-oxo-3,4-dihydro-1H-quinolin-6-yl) piperazine-1-carboxamide [Compound 192] | > 5000 nM | > 5000 nM | > 10000 nM | > 10000 nM | – |
| Cc1cc(NC(=O)c2ccnc3c2CCO3)cc2c1NC(=O)CC2 [Compound 152, N-(8-methyl-2-oxo-3,4-dihydro-1H-quinolin-6-yl)-2,3-dihydrofuro[2,3-b]pyridine-4-carboxamide] | 1000 to 5000 nM | 250 to 1000 nM | 824 nM | 807 nM | – |
| CCc1cnccc1C(=O)Nc1cc(C#N)c2c(c1)CCC(=O)N2 [Compound 139, N-(8-cyano-2-oxo-3,4-dihydro-1H-quinolin-6-yl)-3-ethyl-pyridine-4-carboxamide] | 100 to 250 nM | < 100 nM | 1480 nM | 10000 nM | – |
| CCc1cnccc1C(=O)Nc1cc2c(c(C)c1F)NC(=O)CC2 [Compound 146, 3-ethyl-N-(7-fluoro-8-methyl-2-oxo-3,4-dihydro-1H-quinolin-6-yl)pyridine-4-carboxamide] | < 100 nM | < 100 nM | 405 nM | 356 nM | – |
| CCc1nnccc1C(=O)Nc1cc(C)c2c(c1)CCC(=O)N2 [Compound 166, 3-ethyl-N-(8-methyl-2-oxo-3,4-dihydro-1H-quinolin-6-yl) pyridazine-4-carboxamide] | < 100 nM | 250 to 1000 nM | > 10000 nM | 1600 nM | – |
| CCc1cnccc1C(=O)Nc1cc2c(cc1C)NC(=O)CC2 [Compound 83] | 100 to 250 nM | 1000 to 5000 nM | 3500 nM | 9000 nM | – |
| CCC1COCCN1C(=O)Nc1cc(C)c2c(c1)CCC(=O)N2 (racemic) [Compound 193] | > 5000 nM | > 5000 nM | – | – | – |
| CCc1cnccc1C(=O)Nc1cc(CC)c2c(c1)CCC(=O)N2 [Compound 144, 3-ethyl-N-(8-ethyl-2-oxo-3,4-dihydro-1H-quinolin-6-yl)pyridine-4-carboxamide] | < 100 nM | < 100 nM | 462 nM | 304 nM | – |
| CCc1cnccc1C(=O)Nc1cc2c(cn1)NC(=O)CC2 [Compound 159, 3-ethyl-N-(2-oxo-3,4-dihydro-1H-1,7-naphthyridin-6-yl)pyridine-4-carboxamide] | 250 to 1000 nM | 250 to 1000 nM | 3180 nM | 2750 nM | – |
| O=C1CCc2cc(NC(=O)c3ccncc3CC(F)(F)F)c(F)cc2N1 [Compound 82] | < 100 nM | 100 to 250 nM | 941 nM | 620 nM | – |

Continued, in another order:

| IC50 (hALDH1a3 [1]; read-out: hAldh1a3 IC50) | IC50 (mALDH1a3; read-out: mAldh1a3 IC50) | IC50 (mALDH1a2) | IC50 (hALDH1a2 [2]) | Compound | also measured |
| --- | --- | --- | --- | --- | --- |
| – | – | 86 nM | 75 nM | Cc1cc(NC(=O)c2ccncc2CC(F)(F)F)cc2c1NC(=O)CC2 [Compound 151, N-(8-methyl-2-oxo-3,4-dihydro-1H-quinolin-6-yl)-3-(2,2,2-trifluoroethyl)pyridine-4-carboxamide] | tolerability [3]: excellent tolerability; tumor growth [3]: successful inhibition of tumor growth; IC50 (hALDH1a3 [4]): 1.25 nM and < 50 nM; IC50 (hALDH1a2 [5]): 55.3 nM and < 50 nM |
| 100 to 250 nM | 250 to 1000 nM | 358 nM | 431 nM | CCc1cnccc1C(=O)Nc1cc2c(c(C)c1C)NC(=O)CC2 [Compound 147, N-(7,8-dimethyl-2-oxo-3,4-dihydro-1H-quinolin-6-yl)-3-ethyl-pyridine-4-carboxamide] | – |
| > 5000 nM | 250 to 1000 nM | 114 nM | 89 nM | Cc1cc(Nc2cnc3ccccc3n2)cc2c1NC(=O)C(C)(C)C2 [Compound 161, 3,3,8-trimethyl-6-(quinoxalin-2-ylamino)-1,4-dihydroquinolin-2-one] | – |
| > 5000 nM | > 5000 nM | 177 nM | 163 nM | Cc1cc(Nc2ncc3ccccc3n2)cc2c1NC(=O)C(C)(C)C2 [Compound 160, 3,3,8-trimethyl-6-(quinazolin-2-ylamino)-1,4-dihydroquinolin-2-one] | – |
| – | – | 333 nM | 415 nM | CCc1cnc(Cl)cc1C(=O)Nc1ccc2c(c1)CCC(=O)N2 [Compound 77] | – |
| < 100 nM | < 100 nM | 172 nM | 120 nM | CCc1cnccc1C(=O)Nc1cc2c(c3ccncc13)NC(=O)CC2 [Compound 145, 3-ethyl-N-(2-oxo-3,4-dihydro-1H-1,8-phenanthrolin-6-yl)pyridine-4-carboxamide] | – |
| < 100 nM | < 100 nM | 118 nM | – | Cc1cc(NC(=O)c2ccncc2CC2CC2)cc2c1NC(=O)CC2 [Compound 149, 3-(cyclopropylmethyl)-N-(8-methyl-2-oxo-3,4-dihydro-1H-quinolin-6-yl)pyridine-4-carboxamide] | – |
| < 100 nM | < 100 nM | 63 nM | 57 nM | CCc1cnccc1C(=O)Nc1cc(Cl)c2c(c1)CCC(=O)N2 [Compound 142, N-(8-chloro-2-oxo-3,4-dihydro-1H-quinolin-6-yl)-3-ethyl-pyridine-4-carboxamide] | – |
| < 100 nM | < 100 nM | 131 nM | 121 nM | CCc1cnc(Cl)cc1C(=O)Nc1cc(C)c2c(c1)CCC(=O)N2 [Compound 150, 2-chloro-5-ethyl-N-(8-methyl-2-oxo-3,4-dihydro-1H-quinolin-6-yl)pyridine-4-carboxamide] | – |
| < 100 nM | < 100 nM | 180 nM | 289 nM | CCc1cnccc1C(=O)Nc1cc(F)c2c(c1)CCC(=O)N2 [Compound 141, 3-ethyl-N-(8-fluoro-2-oxo-3,4-dihydro-1H-quinolin-6-yl)pyridine-4-carboxamide] | – |
| – | – | 92 nM | 70 nM | O=C1CCc2cc(NC(=O)c3ccncc3CC(F)(F)F)cc(Cl)c2N1 [Compound 168, N-(8-chloro-2-oxo-3,4-dihydro-1H-quinolin-6-yl)-3-(2,2,2-trifluoroethyl) pyridine-4-carboxamide] | – |
